Test results published in PMC9403976, “Elucidating the path to Plasmodium prolyl-tRNA synthetase inhibitors that overcome halofuginone resistance” (Nature Communications, 2022).
Values joined by “and” are separate entries in the source; they are usually repeats but may differ in a detail not shown here. Equal entries are not always repeated. Where two headings read alike, the source gives them in different places. Marks after values point to notes of the source that are not given here.

What was measured:
[1] = target: T1, PfcProRS (Plasmodium falciparum, UniProt Q8I5R7); assay type: binding; conditions: for Normalized response, dose-response replicates (SI Fig 14): replicates 1-3
T1 construct: made in house; host or cells: E. coli SoluBL-21

[2] = tested on: P. falciparum Dd2-2D4; test: P. falciparum asexual blood stage (ABS) growth assay, SYBR Green, 72 h, wild-type parasites; assay type: cell-based, Plasmodium falciparum; conditions: for EC50: Plasmodium falciparum
Experimental: This assay was performed as previously described[8]. In short, P. falciparum erythrocytic-stage parasites at 1% parasitemia and 1% hematocrit in RPMI + 0.5% Albumax were seeded at 40 μL/well in 384-well plates with test compounds in triplicate, dose-response format with 10 μM dihydroartemisinin as a kill-control and blank (no compound) wells as a growth-control. […] After 72 h, growth was quantified by measuring fluorescence (Molecular Devices SpectraMax iD5) following SYBR Green 1 staining. Data were analyzed in Excel and plotted in PRISM (V. 8.4.3–9.1.0, GraphPad).

[3] = tested on: halofuginone-induced P. falciparum (elevated proline homeostasis); test: P. falciparum ABS growth assay, SYBR Green, 72 h, halofuginone-induced parasites; assay type: cell-based, Plasmodium falciparum; conditions: for EC50: Plasmodium falciparum, DD2
Text: (§1) Parasites were maintained under standard culture conditions as described previously[56],[57]. […] The P. falciparum Dd2 cell lines used in this study (Dd2-2D4, halofuginone-induced, and HFGR-I) have previously undergone whole genome sequencing in our labs. They were also routinely assayed and EC50 values determined using the ABS growth assay (see below) with a panel of standard antimalarial compounds, including halofuginone which has differential activity for the three Dd2 lines used in these experiments. Data were cross-referenced for consistency with literature reported values and data previously acquired in the lab.
(§2) This assay was performed as previously described. In short, P. falciparum erythrocytic-stage parasites at 1% parasitemia and 1% hematocrit in RPMI + 0.5% Albumax were seeded at 40 μL/well in 384-well plates with test compounds in triplicate, dose-response format with 10 μM dihydroartemisinin as a kill-control and blank (no compound) wells as a growth-control. […] After 72 h, growth was quantified by measuring fluorescence (Molecular Devices SpectraMax iD5) following SYBR Green 1 staining. Data were analyzed in Excel and plotted in PRISM (V. 8.4.3–9.1.0, GraphPad).

[4] = tested on: HFGR-I P. falciparum (elevated proline homeostasis and PfcProRS^L482H); test: P. falciparum ABS growth assay, SYBR Green, 72 h, HFGR-I parasites; assay type: cell-based, Plasmodium falciparum; conditions: for EC50: Plasmodium falciparum, DD2
Text: as §1, §2

[5] = target: HsProRS (Homo sapiens, UniProt P07814); test: TR-FRET ligand displacement assay with tracer MAT379 (CoraFluor-1-Halo and anti-His6 antibody formats); assay type: binding; design: made in house; host or cells: E. coli SoluBL-21; conditions: for normalized TR-FRET signal (dose-response replicates): SI Fig 15, listed as Glyburide (28)
[6] = HsProRS (KD [nM]) + proline, 100 μM proline, 250 nM MAT379
[7] = HsProRS (KD [nM]) −, absence of substrates, 250 nM MAT379
[8] = 10 μM, compound had <50% inhibition

HsProRS, sequence (P07814 996-1512): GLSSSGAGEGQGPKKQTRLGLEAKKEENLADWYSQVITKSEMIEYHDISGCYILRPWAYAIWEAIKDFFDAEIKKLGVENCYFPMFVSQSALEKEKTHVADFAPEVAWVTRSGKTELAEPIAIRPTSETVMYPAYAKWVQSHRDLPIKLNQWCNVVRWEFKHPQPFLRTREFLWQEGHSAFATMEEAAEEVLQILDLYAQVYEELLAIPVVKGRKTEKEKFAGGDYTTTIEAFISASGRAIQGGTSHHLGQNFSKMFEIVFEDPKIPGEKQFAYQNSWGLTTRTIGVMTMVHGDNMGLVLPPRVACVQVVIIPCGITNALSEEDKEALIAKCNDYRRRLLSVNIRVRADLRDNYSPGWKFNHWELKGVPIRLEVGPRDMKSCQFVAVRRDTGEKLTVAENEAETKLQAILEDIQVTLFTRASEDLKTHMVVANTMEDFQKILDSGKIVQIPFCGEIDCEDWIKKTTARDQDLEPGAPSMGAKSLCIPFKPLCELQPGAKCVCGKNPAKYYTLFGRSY
T1 sequence (Q8I5R7 249-746): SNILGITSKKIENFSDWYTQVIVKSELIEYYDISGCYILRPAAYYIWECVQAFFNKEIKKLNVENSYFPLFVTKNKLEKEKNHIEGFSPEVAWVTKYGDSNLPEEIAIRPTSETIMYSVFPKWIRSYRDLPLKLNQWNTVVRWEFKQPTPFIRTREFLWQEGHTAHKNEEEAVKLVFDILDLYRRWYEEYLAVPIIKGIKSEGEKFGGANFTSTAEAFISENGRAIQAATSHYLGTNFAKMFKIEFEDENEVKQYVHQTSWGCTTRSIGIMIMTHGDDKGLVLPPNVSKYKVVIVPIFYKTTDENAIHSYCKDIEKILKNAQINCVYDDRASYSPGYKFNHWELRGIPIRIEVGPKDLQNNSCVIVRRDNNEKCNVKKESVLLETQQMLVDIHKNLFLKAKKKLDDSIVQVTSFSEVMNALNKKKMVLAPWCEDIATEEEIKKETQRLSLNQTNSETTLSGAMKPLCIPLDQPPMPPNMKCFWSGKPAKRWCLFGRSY

COc1ccc(Cl)cc1C(=O)NCCc1ccc(S(=O)(=O)NC(=O)NC2CCCCC2)cc1 [Glyburide, reference compound]
binding mode with respect to substrates (ATP, proline) [1]: ATP- and proline-competitive
selectivity for PfcProRS over HsProRS [1]: > 30 fold
Normalized response, dose-response replicates (SI Fig 14) ([1]; Log[inhibitor] (M) -4.000, listed as Glyburide (28)): 9.02E-01 and 9.90E-01 and 8.86E-01
Normalized response, dose-response replicates (SI Fig 14) ([1]; Log[inhibitor] (M) -4.301, listed as Glyburide (28)): 1.05E+00 and 1.04E+00 and 1.16E+00
Normalized response, dose-response replicates (SI Fig 14) ([1]; Log[inhibitor] (M) -4.601, listed as Glyburide (28)): 1.10E+00 and 1.11E+00 and 1.09E+00
Normalized response, dose-response replicates (SI Fig 14) ([1]; Log[inhibitor] (M) -4.904, listed as Glyburide (28)): 1.18E+00 and 1.08E+00 and 1.07E+00
Normalized response, dose-response replicates (SI Fig 14) ([1]; Log[inhibitor] (M) -5.208, listed as Glyburide (28)): 9.30E-01 and 1.21E+00 and 1.10E+00
Normalized response, dose-response replicates (SI Fig 14) ([1]; Log[inhibitor] (M) -5.509, listed as Glyburide (28)): 1.06E+00 and 9.98E-01 and 1.05E+00
Normalized response, dose-response replicates (SI Fig 14) ([1]; Log[inhibitor] (M) -5.796, listed as Glyburide (28)): 9.95E-01 and 9.65E-01 and 1.02E+00
Normalized response, dose-response replicates (SI Fig 14) ([1]; Log[inhibitor] (M) -6.108, listed as Glyburide (28)): 9.29E-01 and 8.37E-01 and 1.06E+00
Normalized response, dose-response replicates (SI Fig 14) ([1]; Log[inhibitor] (M) -6.409, listed as Glyburide (28)): 9.49E-01 and 9.10E-01 and 8.70E-01
Normalized response, dose-response replicates (SI Fig 14) ([1]; Log[inhibitor] (M) -6.710, listed as Glyburide (28)): 9.85E-01 and 9.81E-01 and 9.34E-01
Normalized response, dose-response replicates (SI Fig 14) ([1]; Log[inhibitor] (M) -7.000, listed as Glyburide (28)): 1.05E+00 (2×) and 1.07E+00
Normalized response, dose-response replicates (SI Fig 14) ([1]; Log[inhibitor] (M) -7.301, listed as Glyburide (28)): 1.02E+00 and 9.36E-01 and 1.04E+00
Normalized response, dose-response replicates (SI Fig 14) ([1]; Log[inhibitor] (M) -7.602, listed as Glyburide (28)): 8.75E-01 and 9.05E-01 and 1.01E+00
Normalized response, dose-response replicates (SI Fig 14) ([1]; Log[inhibitor] (M) -8.000, listed as Glyburide (28)): 1.03E+00 and 1.08E+00 and 9.17E-01
Normalized response, dose-response replicates (SI Fig 14) ([1]; Log[inhibitor] (M) -8.301, listed as Glyburide (28)): 1.03E+00 and 8.92E-01 and 1.05E+00
EC50 ([2]; DD2, SI Fig 16b, values on -log scale, read-out: ABS - Dd2-2D4 (converted)): 75700 nM
EC50 ([2]; wild-type Dd2-2D4 ABS parasites, 72 h, read-out: Dd2 (EC50 [nM]) wt): 75600 nM
EC50 ([3]; halofuginone-induced ABS parasites, 72 h, read-out: Dd2 (EC50 [nM]) Halofuginone-induced): 73600 nM
EC50 ([4]; HFGR-I ABS parasites, 72 h, read-out: Dd2 (EC50 [nM]) HFGR-I): 69600 nM
HsProRS % signal at 100 μM, + 100 μM proline ([5]; + 100 μM proline, 100 μM): 92.6%
Kd ([5]; HsProRS (KD [nM]) + ATP, 500 μM ATP, 250 nM MAT379): 30900 nM
Kd [5, 6]: > 50000 nM
Kd [5, 7]: 73900 nM
Kd ([5]; HsProRS KD + 100 μM proline, bound, + 100 μM proline, bound given in μM): > 50900 nM
normalized TR-FRET signal (dose-response replicates) ([5]; Log[inhibitor] (M) -3.99976): 4.60E-01 and 4.45E-01 and 5.24E-01
normalized TR-FRET signal (dose-response replicates) ([5]; Log[inhibitor] (M) -4.3009): 6.36E-01 and 5.89E-01 and 6.44E-01
normalized TR-FRET signal (dose-response replicates) ([5]; Log[inhibitor] (M) -4.60199): 8.28E-01 and 7.19E-01 and 8.15E-01
normalized TR-FRET signal (dose-response replicates) ([5]; Log[inhibitor] (M) -4.90248): 9.22E-01 and 9.13E-01 and 9.32E-01
normalized TR-FRET signal (dose-response replicates) ([5]; Log[inhibitor] (M) -5.20323): 1.00E+00 and 9.33E-01 (2×)
normalized TR-FRET signal (dose-response replicates) ([5]; Log[inhibitor] (M) -5.51347): 9.75E-01 (2×) and 1.00E+00
normalized TR-FRET signal (dose-response replicates) ([5]; Log[inhibitor] (M) -5.79595): 7.95E-01 and 8.60E-01 and 9.98E-01
normalized TR-FRET signal (dose-response replicates) ([5]; Log[inhibitor] (M) -6.10794): 8.65E-01 and 8.44E-01 and 8.55E-01
normalized TR-FRET signal (dose-response replicates) ([5]; Log[inhibitor] (M) -6.40526): 9.62E-01 and 9.85E-01 and 1.00E+00
normalized TR-FRET signal (dose-response replicates) ([5]; Log[inhibitor] (M) -6.7137): 9.69E-01 and 9.06E-01 and 9.96E-01
normalized TR-FRET signal (dose-response replicates) ([5]; Log[inhibitor] (M) -7): 8.09E-01 and 8.06E-01 and 9.15E-01
normalized TR-FRET signal (dose-response replicates) ([5]; Log[inhibitor] (M) -7.331): 8.96E-01 and 8.92E-01 and 9.69E-01
normalized TR-FRET signal (dose-response replicates) ([5]; Log[inhibitor] (M) -7.57403): 9.06E-01 and 7.74E-01 and 8.73E-01
normalized TR-FRET signal (dose-response replicates) ([5]; Log[inhibitor] (M) -7.87506): 6.90E-01 and 8.76E-01 and 8.40E-01
normalized TR-FRET signal (dose-response replicates) ([5]; Log[inhibitor] (M) -8.17609): 9.01E-01 and 9.35E-01 and 9.12E-01

O=C(NC1Cc2ccccc2C1)c1nccnc1NC(=O)N1CCC(NC(=O)[C@@H]2CCCN2)CC1 [MAT334]
Normalized response, dose-response replicates (SI Fig 14) ([1]; Log[inhibitor] (M) -5.000, listed as MAT334 (29)): 2.08E-01 and 3.63E-01 and 3.19E-01
Normalized response, dose-response replicates (SI Fig 14) ([1]; Log[inhibitor] (M) -5.301, listed as MAT334 (29)): 5.18E-01 and 3.74E-01 and 4.21E-01
Normalized response, dose-response replicates (SI Fig 14) ([1]; Log[inhibitor] (M) -5.601, listed as MAT334 (29)): 6.67E-01 and 7.40E-01 and 6.08E-01
Normalized response, dose-response replicates (SI Fig 14) ([1]; Log[inhibitor] (M) -5.904, listed as MAT334 (29)): 7.68E-01 and 7.75E-01 and 6.45E-01
Normalized response, dose-response replicates (SI Fig 14) ([1]; Log[inhibitor] (M) -6.208, listed as MAT334 (29)): 8.81E-01 and 8.94E-01 and 8.19E-01
Normalized response, dose-response replicates (SI Fig 14) ([1]; Log[inhibitor] (M) -6.509, listed as MAT334 (29)): 8.78E-01 and 9.77E-01 and 9.06E-01
Normalized response, dose-response replicates (SI Fig 14) ([1]; Log[inhibitor] (M) -6.796, listed as MAT334 (29)): 9.44E-01 and 9.68E-01 and 8.61E-01
Normalized response, dose-response replicates (SI Fig 14) ([1]; Log[inhibitor] (M) -7.108, listed as MAT334 (29)): 1.02E+00 and 1.01E+00 and 1.00E+00
Normalized response, dose-response replicates (SI Fig 14) ([1]; Log[inhibitor] (M) -7.409, listed as MAT334 (29)): 9.75E-01 and 1.05E+00 and 9.17E-01
Normalized response, dose-response replicates (SI Fig 14) ([1]; Log[inhibitor] (M) -7.710, listed as MAT334 (29)): 9.99E-01 and 1.04E+00 and 9.29E-01
Normalized response, dose-response replicates (SI Fig 14) ([1]; Log[inhibitor] (M) -8.000, listed as MAT334 (29)): 9.48E-01 and 9.82E-01 and 1.03E+00
Normalized response, dose-response replicates (SI Fig 14) ([1]; Log[inhibitor] (M) -8.301, listed as MAT334 (29)): 1.01E+00 and 1.09E+00 and 9.01E-01
Normalized response, dose-response replicates (SI Fig 14) ([1]; Log[inhibitor] (M) -8.602, listed as MAT334 (29)): 8.97E-01 (2×) and 1.09E+00
Normalized response, dose-response replicates (SI Fig 14) ([1]; Log[inhibitor] (M) -9.000, listed as MAT334 (29)): 9.02E-01 and 9.67E-01 and 1.03E+00
Normalized response, dose-response replicates (SI Fig 14) ([1]; Log[inhibitor] (M) -9.301, listed as MAT334 (29)): 8.06E-01 and 9.62E-01 and 9.06E-01
PfcProRS -- best Kd ([1]; SI Fig 16a, values on -log scale): 6.180
percent growth at 10 μM, Dd2 wt [2, 8]: 76%^b
EC50 ([2]; wildtype (Dd2-2D4), bound given in μM, read-out: Dd2 EC50 wildtype (Dd2-2D4), bound): > 10000 nM
% signal at 10 μM, wildtype (Dd2-2D4) ([2]; wildtype (Dd2-2D4), 10 μM): 75.7%
percent growth at 10 μM, Dd2 Halofuginone-induced [3, 8]: 59%^b
EC50 ([3]; halofuginone-induced, bound given in μM, read-out: Dd2 EC50 halofuginone-induced, bound): > 10000 nM
% signal at 10 μM, halofuginone-induced ([3]; halofuginone-induced, 10 μM): 58.7%
fold decreased activity in halofuginone-induced and HFGR-I parasites ([3]; vs wild-type Dd2-2D4): 20-to-40 fold
percent growth at 10 μM, Dd2 HFGR-I [4, 8]: 66%^b
% signal at 10 μM, HFGR1 ([4]; HFGR1, 10 μM): 66.0%
EC50 ([4]; HFGR1, bound given in μM, read-out: Dd2 EC50 HFGR1, bound): > 10000 nM
Kd [5, 6]: 2130 nM
Kd [5, 7]: 2110 nM
